Where “and” joins values, the source holds several entries; their conditions need not be identical. Equal entries are not always repeated.
How the values were obtained:
[1] = tested on: Plasmodium berghei; assay: Antimalarial effect against trophozoite-induced Plasmodium berghei in mice (Mus musculus) after 40 mg/kg subcutaneous dose; assay type: functional
[2] = tested on: Plasmodium berghei; assay: Antimalarial activity against trophozoite-induced Plasmodium berghei in mice (Mus musculus) at 160 mg/kg subcutaneous dose; assay type: functional
[3] = tested on: Plasmodium berghei; assay: Antimalarial activity against trophozoite-induced Plasmodium berghei in mice (Mus musculus); assay type: functional
[4] = tested on: Mus musculus; assay: Number of toxic deaths at a dose of 640 mg/kg; assay type: toxicity, organism-based; parameters: dose 640 mg/kg; settings: in vivo
[5] = The ratio of SD90 of the quinine hydrochloride, to the SD90 of the test substance for the Dose of >37 mg/kg; assay type: functional
[6] = tested on: Mus musculus; assay: Number of mice cured at a subcutaneous dose of 160 mg/kg.; assay type: functional
[7] = tested on: Mus musculus; assay: Number of mice cured at a dose of 640 mg/kg sc; assay type: functional; settings: route subcutaneous
[8] = The ratio of SD90 of the quinine hydrochloride, to the SD90 of the test substance for the Dose of 6.3 mg/kg; assay type: functional
[9] = tested on: Plasmodium berghei; assay: Antimalarial effect against trophozoite-induced Plasmodium berghei in mice (Mus musculus) after 20 mg/kg subcutaneous dose; assay type: functional
[10] = tested on: Plasmodium berghei; assay: Antimalarial effect against trophozoite-induced Plasmodium berghei in mice (Mus musculus) at 320 mg/kg subcutaneous dose; assay type: functional
[11] = tested on: Plasmodium berghei; assay: (§1) Antimalarial effect against trophozoite-induced Plasmodium berghei in mice (Mus musculus) at 640 mg/kg subcutaneous dose; assay type: functional
[12] = tested on: Plasmodium berghei; assay: as §1; assay type: functional; remark: listed apart in the source
[13] = tested on: Plasmodium berghei; assay: Antimalarial effect against trophozoite-induced Plasmodium berghei in mice (Mus musculus) at 160 mg/kg subcutaneous dose; assay type: functional
[14] = species on record: Mus musculus; assay: Antimalarial effect against trophozoite-induced Plasmodium berghei in mice (Mus musculus); assay type: functional
[15] = tested on: Plasmodium berghei; assay: Antimalarial effect against trophozoite-induced Plasmodium berghei in mice (Mus musculus) at 80 mg/kg subcutaneous dose; assay type: functional
[16] = tested on: Mus musculus; assay: Antimalarial effect against trophozoite induced Plasmodium berghei in mice (Mus musculus) at dosage of 40 mg/kg after subcutaneous administration; assay type: functional
[17] = The ratio of SD90 of the quinine hydrochloride, to the SD90 of the test substance for the Dose of 25 mg/kg; assay type: functional
[18] = tested on: Mus musculus; assay: Number of mice cured at a subcutaneous dose of 320 mg/kg.; assay type: functional
[19] = tested on: Mus musculus; assay: Number of mice cured at a subcutaneous dose of 640 mg/kg.; assay type: functional
[20] = The ratio of SD90 of the quinine hydrochloride, to the SD90 of the test substance for the Dose of 9.8 mg/kg; assay type: functional
[21] = The ratio of SD90 of the quinine hydrochloride, to the SD90 of the test substance for the Dose of >147 mg/kg; assay type: functional
[22] = tested on: Mus musculus; assay: Antimalarial effect against trophozoite-induced Plasmodium berghei in mice (Mus musculus) at dosage of 160 mg/kg after subcutaneous administration; No. of mice (Mus musculus) surviving after 60 days 4; assay type: functional
[23] = tested on: Mus musculus; assay: Antimalarial effect against trophozoite-induced Plasmodium berghei in mice (Mus musculus) at dosage of 80 mg/kg after subcutaneous administration; No. of mice (Mus musculus) surviving after 60 days 4; assay type: functional
[24] = tested on: Mus musculus; assay: Number of mice cured at a dose 320 mg/kg sc; assay type: functional; settings: route subcutaneous
[25] = The ratio of SD90 of the quinine hydrochloride, to the SD90 of the test substance for the Dose of 24 mg/kg; assay type: functional
[26] = The ratio of SD90 of the quinine hydrochloride, to the SD90 of the test substance for the Dose of 6 mg/kg; assay type: functional
[27] = tested on: Mus musculus; assay: Number of mice cured at a dose of 160 mg/kg sc; assay type: functional; settings: route subcutaneous
[28] = tested on: Mus musculus; assay: Number of mice cured at a dose of 320 mg/kg sc; assay type: functional; settings: route subcutaneous
[29] = tested on: Mus musculus; assay: Antimalarial effect against trophozoite-induced Plasmodium berghei in mice (Mus musculus) at dosage of 80 mg/kg after subcutaneous administration; assay type: functional; settings: 80 mg/kg
[30] = tested on: Mus musculus; assay: Number of mice cured at a dose of 80 mg/kg sc; assay type: functional; settings: route subcutaneous
[31] = The ratio of SD90 of the quinine hydrochloride, to the SD90 of the test substance for the Dose of 9 mg/kg; assay type: functional
[32] = The ratio of SD90 of the quinine hydrochloride, to the SD90 of the test substance for the Dose of 9.3 mg/kg; assay type: functional

c1ccc2c(NCCCN3CCCC3)nc(Nc3ccncc3)nc2c1
MST [1]: 0.3 days | MST [2]: 0.9 days | SD90 [3]: >37 mg/kg/day | No. of toxic deaths [4]: 5 and 2 | Ratio [5]: <2

Clc1ccc(Nc2nc(NCCCN3CCCC3)c3ccccc3n2)cc1Cl
MST [1]: 5.2 days | SD90 [3]: 12 mg/kg/day | No. of survivals [6]: 4 | No. of survivals [7]: 5 | Ratio [8]: 12

OC1CCCN(CCCNc2nc(Nc3ccc(I)cc3)nc3ccccc23)C1 (centres undefined)
MST [9]: 1 days | MST [10]: 13.1 days | MST [1]: 1.2 days | MST [11]: 20.1 days | MST [12]: 24.1 days | MST ([13]; 160 mg/kg): 8 days and 5.8 days | SD90 [14]: 25 mg/kg/day | MST [15]: 4 days | No. of survivals [7]: 2 | MST [16]: 0.8 days | Ratio [17]: 3 | No. of survivals [18]: 1

CN1CCCC1CCNc1nc(Nc2ccc(Cl)cc2)nc2ccccc12 (centres undefined)
MST [9]: 0.8 days | MST [10]: 14.4 days | MST ([1]; 40 mg/kg): 1.1 days and 0.8 days | MST ([11]; 640 mg/kg): 12.2 days and 22.3 days | MST ([13]; 160 mg/kg): 10.7 days and 10.2 days | No. of cured ([19]; 640 mg/kg): 2 and 3 | SD90 [3]: 9.8 mg/kg/day | MST [15]: 4.4 days | Ratio [20]: 7.6

OC1CCCN(CCCNc2nc(Nc3nc(-c4ccccc4)cs3)nc3ccccc23)C1 (centres undefined)
MST [1]: 0.2 days | MST [12]: 0.8 days | MST [13]: 0.4 days | SD90 [3]: >147 mg/kg/day | Ratio [21]: <0.5

CN(C)C1CCC(Nc2nc(Nc3cc(Cl)cc(Cl)c3)nc3ccccc23)CC1 (stereo in doubt; 26)
MST ([9]; 20 mg/kg): 3.6 days and 1.7 days | MST ([10]; 320 mg/kg): 27.8 days | MST ([2]; 160 mg/kg): 19.1 days and 24.9 days | MST [22]: 27.9 days | MST ([15]; 80 mg/kg): 11.6 days and 9 days | MST [23]: 23.9 days | No. of survivals [24]: 4 | No. of survivals ([6]; 160 mg/kg): 2 and 4 | No. of survivals [7]: 5 | No. of survivals [18]: 5

CCN(CC)CCNc1nc(Nc2ccc(Cl)c(Cl)c2)nc2ccccc12
MST [1]: 1 days | MST [13]: 7 days | SD90 [3]: 24 mg/kg/day | No. of survivals [7]: 5 | Ratio [25]: 3.1

CN1CCCC1CCNc1nc(Nc2cccc(Br)c2)nc2ccccc12 (centres undefined)
MST [9]: 1.6 days | MST [10]: 15 days | MST ([1]; 40 mg/kg): 5.2 days and 4.5 days | MST ([11]; 640 mg/kg): 20.3 days and 21.9 days | MST ([13]; 160 mg/kg): 11.4 days and 11.7 days | No. of cured ([19]; 640 mg/kg): 3 and 2 | SD90 [3]: 6 mg/kg/day | MST [15]: 7.8 days | Ratio [26]: 12.4

CCN(CC)C1CCC(Nc2nc(Nc3cc(Cl)cc(Cl)c3)nc3ccccc23)CC1 (stereo in doubt; 34)
MST ([9]; 20 mg/kg): 2.3 days | MST ([1]; 40 mg/kg): 7.7 days and 7.5 days | MST ([2]; 160 mg/kg): 26.9 days and 23.4 days | No. of cured [27]: 2 | No. of cured ([28]; 320 mg/kg): 5 and 3 | No. of cured [19]: 5 | SD90 [3]: 9 mg/kg/day | MST [29]: 13.4 days | No. of cured [30]: 1 | Ratio [31]: 8.3

CN(C)C1CCC(Nc2nc(Nc3cc(Cl)cc(Cl)c3)nc3ccccc23)CC1 (stereo in doubt; 25)
MST ([9]; 20 mg/kg): 5.1 days | MST ([10]; 320 mg/kg): 24.9 days | MST ([1]; 40 mg/kg): 9.7 days and 9.3 days | MST ([13]; 160 mg/kg): 17.5 days and 16.9 days | No. of cured [28]: 4 | No. of cured [19]: 5 | SD90 [3]: 9.3 mg/kg/day | MST ([15]; 80 mg/kg): 10.9 days | Ratio [32]: 8
